Laboratory results: PubChem BioAssay (NCI)
“And” between values parts separate entries of the source, which are not always exact repeats. Identical values can stand only once.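 How tested: cells in 96-well plates exposed to compound for 48 hours at five concentrations. GI50 is the concentration that inhibits growth by half. The concentration for full growth arrest is given as TGI.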

Experiments:
Experiment in all cases: inhibition of tumour cell growth, NCI panel, 48 h
UACC-62 melanoma = test system: UACC-62 melanoma
NCI-H226 lung = test system: NCI-H226 lung
CAKI-1 renal = test system: CAKI-1 renal
U251 CNS = test system: U251 CNS
HCC-2998 colon = test system: HCC-2998 colon
OVCAR-5 ovarian = test system: OVCAR-5 ovarian
BT-549 breast = test system: BT-549 breast
MOLT-4 leukemia = test system: MOLT-4 leukemia
NCI/ADR-RES ovarian = test system: NCI/ADR-RES ovarian
NCI-H23 lung = test system: NCI-H23 lung

Structure (SMILES) | GI50 (UACC-62 melanoma) | TGI (UACC-62 melanoma) | GI50 (NCI-H226 lung) | TGI (NCI-H226 lung) | GI50 (CAKI-1 renal) | TGI (CAKI-1 renal) | GI50 (U251 CNS) | TGI (U251 CNS) | GI50 (HCC-2998 colon) | TGI (HCC-2998 colon) | GI50 (OVCAR-5 ovarian) | TGI (OVCAR-5 ovarian) | GI50 (BT-549 breast) | TGI (BT-549 breast) | GI50 (MOLT-4 leukemia) | TGI (MOLT-4 leukemia) | GI50 (NCI/ADR-RES ovarian) | TGI (NCI/ADR-RES ovarian) | GI50 (NCI-H23 lung) | TGI (NCI-H23 lung)
COC(=O)c1c2c(c(C)[n+]([O-])c1C)C(=O)C(NCc1ccc(F)c(Cl)c1)=CC2=O | 1.38 µM | 3.12 µM | 2.98 µM | 9.32 µM | 2.52 µM | 10.4 µM | 2.53 µM | 13.8 µM | 2.28 µM | 6.66 µM | 1.66 µM | 3.82 µM | 1.88 µM | 5.81 µM | 2.42 µM | 7.2 µM | 2.08 µM | 6.92 µM | 1.74 µM | 4.77 µM
N#Cc1ccc(-n2cnc(NC(=O)[C@H]3CCN(C#N)C3)c2)cc1 | 0.892 µM | 4.47 µM | 2.51 µM | 9.85 µM | 2.48 µM | > 100 µM | 3.29 µM | > 56.7 µM | 2.28 µM | 18.6 µM | 3.3 µM | > 100 µM | 0.248 µM | 2.47 µM | 2.15 µM | > 29.8 µM | 2.41 µM | > 86.8 µM | 1.78 µM | 12.6 µM
CC/C(=C(\c1ccc(O)cc1)c1ccc(OCCNC)cc1)c1ccccc1 | 1.66 µM and 1.65 µM and 1.78 µM | 3.41 µM and 3.24 µM and 3.44 µM | 9.26 µM and 6.49 µM and 4.33 µM | 28.4 µM and 23.7 µM and 17 µM | 1.82 µM and 1.68 µM and 2.02 µM | 4.28 µM and 3.52 µM and 6.29 µM | 1.57 µM and 1.5 µM and 1.66 µM | 2.92 µM and 2.83 µM and 3.15 µM | 1.8 µM and 1.78 µM and 1.88 µM | 3.28 µM and 3.23 µM and 3.62 µM | 2.82 µM and 2.44 µM and 2.09 µM | 8.23 µM and 6.35 µM and 4.77 µM | 2.39 µM and 1.84 µM and 3.33 µM | 5.61 µM and 3.77 µM and 8.64 µM | 3.22 µM and 1.94 µM and 2.98 µM | 8.37 µM and 5.92 µM and 8.57 µM | 2.6 µM and 2.55 µM and 2.5 µM | 6.83 µM and 7.06 µM and 6.81 µM | 2.13 µM and 1.97 µM and 2.1 µM | 4.8 µM and 4.29 µM and 4.45 µM
C=C1CC2(OC1=O)c1ccccc1CCc1ccccc12 |  | 15.9 µM |  | 26.8 µM |  | 3.82 µM |  | 18.1 µM |  | 6.51 µM |  | 27.7 µM |  | 3.78 µM |  | 7.18 µM |  | 3.04 µM |  | 23 µM
C=CC(=O)Nc1cc2c(Nc3ccc(OCc4ccccn4)c(Cl)c3)ncnc2cc1OCCN1CCOCC1 | 2.85 µM | 17.4 µM | 6.56 µM | > 83.6 µM | 1.86 µM | 19.7 µM | 4.65 µM | > 100 µM | 2.2 µM | 11.1 µM | 15.6 µM | > 100 µM | 8.86 µM | 37.4 µM | 3.02 µM | > 85.1 µM | 3.77 µM | > 100 µM | 5.24 µM | 20 µM
C#C[C@]1(O)CC[C@H]2[C@@H]3CC=C4c5nc(Nc6ccc(OC)cc6OC)sc5CC[C@]4(C)[C@H]3CC[C@@]21C | 1.76 µM | 5.04 µM | 2.3 µM | 6.23 µM | 1.39 µM | 5.74 µM | 0.77 µM | 4.09 µM | 2.17 µM | 5.59 µM | 2.53 µM | 12.2 µM | 0.656 µM | 4.77 µM | 0.46 µM | 4.69 µM | 2.36 µM | 17 µM | 2.18 µM | 12 µM
NC(=O)c1c(OCc2c(F)cc(Br)cc2F)nsc1NC(=O)NCCCCN1CCCC1 | 1.82 µM | 3.93 µM | 0.453 µM | > 10 µM | 2.49 µM | > 10 µM | 1.71 µM | 5.51 µM | 5.26 µM | > 10 µM | 3.1 µM | > 10 µM | 6.64 µM | > 10 µM | 2.14 µM | 9.76 µM | 5.82 µM | > 10 µM | 5.18 µM | > 10 µM
